Laboratory results from patent EP1803452A1, “ESTER DERIVATIVE AND PHARMACEUTICAL USE THEREOF” (Japan Tobacco, Inc., priority 2004, dated 2006).

Legend:
[1] = Stability test in buffer (pH 7.4); assay type: physicochemical; conditions: phosphate buffer/acetonitrile 7:3, 100 mM potassium phosphate buffer (pH 7.4) and acetonitrile 7:3 (v/v), LC/MS
In short: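 Compound from DMSO solution incubated at 37°C in 100 mM potassium phosphate buffer/acetonitrile 7:3 (v/v) for 0, 10 and 60 min, then quenched with acetonitrile containing formic acid (final 0.1%). Unchanged compound in supernatant quantified by LC/MS; remaining rate (%) = amount at each time / amount at zero time × 100.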

[2] = molecular target: T1, Microsomal triglyceride transfer protein (MTP) from human small intestine microsome (Homo sapiens, UniProt P55157); assay: Inhibition test of interliposomal triglyceride (TG) transfer activity by MTP; assay type: biochemical; conditions: purified MTP from human small intestine microsome, 14C-triolein donor/acceptor liposomes, 37 °C for 1.5 hours
T1 construct: Human small intestine microsome was dialyzed against 10 mM phosphate buffer; tissue Tissue Transforming Technologies, Inc; host or cells: Human small intestine microsomes, dialysed, centrifuged, and the supernatant purified on DEAE Sepharose (FPLC)
T1 sequence (P55157 19-894): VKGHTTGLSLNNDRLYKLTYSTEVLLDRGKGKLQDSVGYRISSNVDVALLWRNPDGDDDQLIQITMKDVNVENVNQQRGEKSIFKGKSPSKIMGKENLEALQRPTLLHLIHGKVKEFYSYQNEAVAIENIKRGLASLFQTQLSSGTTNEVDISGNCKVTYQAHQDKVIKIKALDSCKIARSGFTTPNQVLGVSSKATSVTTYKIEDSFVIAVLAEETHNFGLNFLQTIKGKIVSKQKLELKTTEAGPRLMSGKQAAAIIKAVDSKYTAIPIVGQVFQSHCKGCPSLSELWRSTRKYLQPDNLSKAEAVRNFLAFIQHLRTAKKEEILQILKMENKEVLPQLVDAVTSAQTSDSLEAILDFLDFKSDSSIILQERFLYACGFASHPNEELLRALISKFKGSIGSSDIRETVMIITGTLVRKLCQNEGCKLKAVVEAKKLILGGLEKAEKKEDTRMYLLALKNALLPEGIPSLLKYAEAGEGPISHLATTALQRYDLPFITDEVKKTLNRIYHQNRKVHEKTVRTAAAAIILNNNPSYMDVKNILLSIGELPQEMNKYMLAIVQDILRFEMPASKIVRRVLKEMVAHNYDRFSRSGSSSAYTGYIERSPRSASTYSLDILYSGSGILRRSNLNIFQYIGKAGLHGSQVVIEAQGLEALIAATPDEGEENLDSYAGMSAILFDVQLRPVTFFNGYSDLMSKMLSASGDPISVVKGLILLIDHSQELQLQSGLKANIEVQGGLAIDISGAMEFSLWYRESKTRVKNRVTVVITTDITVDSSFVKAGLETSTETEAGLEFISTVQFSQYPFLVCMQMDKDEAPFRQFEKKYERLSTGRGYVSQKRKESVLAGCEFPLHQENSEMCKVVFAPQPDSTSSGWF
T1 sequence (P07237 18-508 partner): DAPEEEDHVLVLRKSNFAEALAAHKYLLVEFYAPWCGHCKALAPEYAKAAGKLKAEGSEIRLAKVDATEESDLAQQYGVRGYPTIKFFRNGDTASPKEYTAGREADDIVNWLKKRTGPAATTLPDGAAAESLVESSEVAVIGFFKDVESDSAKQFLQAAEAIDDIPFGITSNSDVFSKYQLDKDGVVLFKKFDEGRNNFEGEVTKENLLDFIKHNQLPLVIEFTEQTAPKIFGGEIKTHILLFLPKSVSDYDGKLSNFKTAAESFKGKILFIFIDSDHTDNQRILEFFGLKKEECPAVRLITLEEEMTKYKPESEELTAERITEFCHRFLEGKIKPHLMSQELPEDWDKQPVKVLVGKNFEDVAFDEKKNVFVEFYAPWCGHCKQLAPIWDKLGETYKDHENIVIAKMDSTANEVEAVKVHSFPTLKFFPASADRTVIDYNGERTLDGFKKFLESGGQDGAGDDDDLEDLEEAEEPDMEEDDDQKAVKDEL
Description: Firstly, in order to prepare the donor, there were volatilized under a stream of nitrogen gas a phosphatidylcholine solution containing phosphatidylcholine labeled with ^3H, a cardiolipin solution, and a triolein solution containing triolein labeled with ^14C (each solution had been already dissolved in an appropriate organic solvent), or in order to prepare the acceptor, there were volatilized under nitrogen flow a phosphatidylcholine solution containing phosphatidylcholine labeled with ^3H and a cardiolipin solution (each solution had been already dissolved in an appropriate organic solvent). An appropriate amount of a reaction buffer (15 mM Tris-HCl buffer containing 1 mM EDTA.Na2, 40 mM NaCl, and 0.5% (w/v) bovine serum albumin, pH 7.4) was added thereto to be emulsified. […] Each of the resulting supernatant was used for donor or acceptor.
Each radioactivity in the acceptor and the donor was measured by liquid scintillation counter, and a mixed solution of the acceptor and the donor was prepared with a reaction buffer so as to be a donor-derived radioactivity of 16,000 dpm/400 µL and a acceptor-derived radioactivity of 4,000 dpm/400 µL. 400 µL of the mixed solution of the donor and the acceptor, 45 µL of the reaction buffer, 50 µL of MTP (20 µg/mL), and 5 µL of a sample dissolved in DMSO (dimethyl sulfoxide) or 5 µL of DMSO was mixed (total amount: 500 µL). The mixture was incubated at 37 °C for 1.5 hours. […] The radioactivity in the acceptor was measured by liquid scintillation counter. The value obtained by subtracting the radioactivity in a blank group from the radioactivity in the acceptor of a DMSO group was determined as MTP-mediated TG transfer activity, and it was compared with the value obtained by subtracting the radioactivity in the blank group from the radioactivity in a sample group. […] Inhibition rate (%) was calculated from values obtained according to the following equation. Inhibition rate(%) = (1 minus ((radioactivity of sample group minus radioactivity of blank group)/(radioactivity of DMSO group minus radioactivity of blank group))) × 100.

[3] = Metabolic stability test in plasma; assay type: in vitro ADME, human; conditions: LC/MS
In short: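 Compound in DMSO spiked into human, mouse or hamster plasma, incubated at 37°C for 0, 10 and 60 minutes, then quenched with acetonitrile/formic acid (final 0.1%). Unchanged compound in supernatant quantified by LC/MS; remaining rate (%) relative to time zero.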

[4] = Metabolic stability test in liver S9; assay type: in vitro ADME; conditions: pH 7.4, human liver S9 2 mg protein/mL, LC/MS
In short: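 Compound from DMSO solution was incubated at 37°C with human liver S9 (final 2 mg protein/mL) in 100 mM potassium phosphate pH 7.4 with an NADPH-regenerating system for 0, 10 and 60 minutes. Reactions were stopped with acetonitrile/0.1% formic acid. Unchanged compound was measured by LC/MS as remaining rate (%) relative to zero time.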

remaining at 10 min ([1]; 10 minutes at 37°C, read-out: Buf. remaining rate (%/10min)): 97%
remaining at 1 h ([1]; 60 minutes at 37°C, read-out: Buf. remaining rate (%/60min)): 105%
Human intestine MTP (IC50(nM)) [2]: + ++
remaining at 10 min ([3]; unchanged form after 10 minutes at 37°C in human plasma, read-out: Remaining rate in human plasma (%/10min)): 0%
remaining at 1 h ([3]; unchanged form after 60 minutes at 37°C in human plasma, read-out: Remaining rate in human plasma (%/60min)): 0%
remaining at 10 min ([4]; unchanged form after 10 minutes at 37°C, read-out: Remaining rate in human liver S9 (%/10min)): 10%
remaining at 1 h ([4]; unchanged form after 60 minutes at 37°C, read-out: Remaining rate in human liver S9 (%/60min)): 2%
Compound: CCOC(=O)c1cc(OC)c(OC(=O)CCCc2ccc(NC(=O)c3ccc(C)nc3-c3ccc(C(F)(F)F)cc3)c(C(=O)N(C)C)c2)c(C(=O)OC)c1 [Compound 1-54, 4-[4-(3-dimethylcarbamoyl-4-{[6-methyl-2-(4-trifluoromethylphenyl)pyridine-3-carbonyl]amino}phenyl)butyryloxy]-5-methoxyisophthalic acid 1-ethyl ester 3-methyl ester]
